From patent publication US20130172308A1, “ANTIMICROBIAL AGENTS” (John Grant COLLINS, priority 2011, published 2013)

Tests used:
[1] = type: physicochemical; conditions: pH 7.4
Method: The primary difference between the members of the Rubbn family of complexes is the number of methylene groups in the flexible linking chain. […] Lipophilicity is a significant factor affecting the biological activity of most therapeutic compounds, as it relates to the capacity of the drug to penetrate through the cell membrane. The standard octanol-water partition coefficient (logP) was determined for the Rubbn series (F. Lombardo, B. Faller, M. Shalaeva, I. Tetko and S. Tilton, Methods and Principles in Medicinal Chemistry, 2008, 37, 407) parent model mononuclear species ([Ru(phen)2(Me2bpy)]^2+) and the trinuclear and tetranuclear complexes.
The partition coefficients (logP) were measured using the shake flask technique: each ruthenium complex (at both 0.05 and 0.1 mM) was dissolved in the water phase (0.2 M Na2HPO4—NaH2PO4 buffer, pH=7.4) and an equivalent volume of n-octanol was added.
The two phases were mutually saturated by shaking overnight at ambient temperature and then were allowed to separate on standing. The concentration of the metal complex in each phase was determined spectrophotometrically at l=450 nm.

E. coli ATCC 25922 = experiment: MIC determination, broth micro-dilution (CAMHB); type: cell-based, Escherichia coli; conditions: Table 1; 37° C., 24 h
Method: (§1) Four strains of bacteria were chosen for the susceptibility tests: S. aureus ATCC 25923; MRSA (a wild clinical strain from the JCU culture collection); E. coli ATCC 25922 and P. aeruginosa ATCC 27853. The bacteria were grown on Mueller Hinton agar (OXOID, cat. No. CM0337) and suspended in growth medium cation-adjusted Mueller Hinton broth (CAMHB, OXOID, cat. No. CM0405). The MIC of each complex was determined in duplicate by standard micro-dilution methodology (British Society for Antimicrobial Chemotherapy Working Party, J. Antimicrob. Chemother., 1991, 27(suppl. D), 22) using gentamicin as the positive control. The ruthenium complexes were dissolved in CAMHB to a stock solution of […] and two-fold diluted in the broth in 96-well plates in a final volume of […] in each well. The same volume […] of bacterial suspension was added in each well making a concentration range of 0.25 mg ml^−1 to 128 mg ml^−1 for each complex. The plates were incubated at 37° C. for 24 h. The results are summarised in Table 1 below, using the following abbreviations: • Rubpm=ΔΔ-[{Ru(phen)2}2(μ-2,2′-bipyrimidine)]Cl4 • Rudppm=ΔΔ-[{Ru(phen)2}2(μ-4,6-bis(2-pyridyl)pyrimidine)]Cl4 • Rubb7trinuclear=Δ*Δ*-[{Ru*(phen)2}(μ-bb7){Ru(phen)}(μ-bb7){Ru*(phen)2}]Cl6 (only the two terminal metal centres are chiral, the two central metal centres are racemic) • Rubb7tetranuclear=Δ*Δ*-[{Ru*(phen)2}(μ-bb7) {Ru(phen)}(μ-bb7){Ru(phen)}(μ-bb7)-{Ru*(phen)2}]Cl8 (only the two terminal metal centres are chiral, the two central metal centres are racemic)
(§2) Further MIC assays and Minimum Bactericidal Concentration (MBC) assays were conducted against Gram-positive and Gram-negative bacterial strains using symmetric and non-symmetric, inert and labile complexes.

S. aureus ATCC 25923 = experiment: MIC determination, broth micro-dilution (CAMHB); type: cell-based, Staphylococcus aureus; conditions: Table 1; 37° C., 24 h
Method: as §1, §2

P. aeruginosa ATCC 27853 = experiment: MIC determination, broth micro-dilution (CAMHB); type: cell-based, Pseudomonas aeruginosa; conditions: Table 1; 37° C., 24 h
Method: as §1, §2

[2] = tested on: MRSA (a wild clinical strain from the JCU culture collection); experiment: MIC determination, broth micro-dilution (CAMHB); type: cell-based, methicillin-resistant S. aureus; conditions: Table 1; 37° C., 24 h
Method: as §1, §2

Compound	logP [1]	MIC E. coli (E. coli ATCC 25922)	MIC S. aureus (S. aureus ATCC 25923)	MIC P. aeruginosa (P. aeruginosa ATCC 27853)	MIC MRSA [2]
Cc1cc[n+]2c(c1)-c1cc(CCc3cc[n+]4c(c3)-c3cc(C)cc[n+]3[Ru-4]435([n+]4cccc6ccc7ccc[n+]3c7c64)[n+]3cccc4ccc6ccc[n+]5c6c43)cc[n+]1[Ru-4]213([n+]2cccc4ccc5ccc[n+]1c5c42)[n+]1cccc2ccc4ccc[n+]3c4c21 [Rubb2, [{Ru(phen)2}2(μ-bb2)]^4+]	−3.6	–	–	–	–
Cc1ccnc(-c2cc(CCCCCCCc3cc[n+]4c(c3)-c3cc(C)cc[n+]3[Ru-4]435([n+]4cccc6ccc7ccc[n+]3c7c64)[n+]3cccc4ccc6ccc[n+]5c6c43)ccn2)c1 [Rubb7mono, Δ-[Ru(phen)2(bb7)]^2+]	−0.7	16 µg/mL	4 µg/mL	32 µg/mL	16 µg/mL
Cc1ccnc(-c2cc(CCCCCCCCCCc3ccnc(-c4cc(C)ccn4)c3)ccn2)c1.F[P-](F)(F)(F)(F)F.F[P-](F)(F)(F)(F)F.F[P-](F)(F)(F)(F)F.F[P-](F)(F)(F)(F)F.[Ru+2].[Ru+2].c1cnc2c(c1)ccc1cccnc12.c1cnc2c(c1)ccc1cccnc12.c1cnc2c(c1)ccc1cccnc12.c1cnc2c(c1)ccc1cccnc12 [Rubb10, [{Ru(phen)2}2(μ-bb10)](PF6)4]	−3.3	–	–	–	–
Cc1cc[n+]2c(c1)-c1cc(CCCCCCCCCCCCCCc3cc[n+]4c(c3)-c3cc(C)cc[n+]3[Ru-4]435([n+]4cccc6ccc7ccc[n+]3c7c64)[n+]3cccc4ccc6ccc[n+]5c6c43)cc[n+]1[Ru-4]213([n+]2cccc4ccc5ccc[n+]1c5c42)[n+]1cccc2ccc4ccc[n+]3c4c21.[Cl-].[Cl-].[Cl-].[Cl-] [Rubb14, [{Ru(phen)2}2(μ-bb14)]Cl4]	−2.3	–	–	–	–
Cc1cnc2c(ccc3c(C)c(C)cnc32)c1C.Cc1cnc2c(ccc3c(C)c(C)cnc32)c1C.Cc1cnc2c(ccc3c(C)c(C)cnc32)c1C.[Ru+2] [[Ru(Me4phen)3]^2+, reference compound]	–	8 µg/mL	0.5 µg/mL	32 µg/mL	4 µg/mL
[Ru+2].c1cnc2c(c1)ccc1cccnc12.c1cnc2c(c1)ccc1cccnc12.c1cnc2c(c1)ccc1cccnc12 [[Ru(phen)3]^2+, reference compound]	–	>128 µg/mL	>128 µg/mL	>128 µg/mL	>128 µg/mL
Cc1cc[n+]2c(c1)-c1cc(CCc3cc[n+]4c(c3)-c3cc(C)cc[n+]3[Ru-4]435([n+]4cccc6ccc7ccc[n+]3c7c64)[n+]3cccc4ccc6ccc[n+]5c6c43)cc[n+]1[Ru-4]213([n+]2cccc4ccc5ccc[n+]1c5c42)[n+]1cccc2ccc4ccc[n+]3c4c21 [ΔΔ-Rubb2, [{Ru(phen)2}2(μ-bb2)]^4+]	–	>128 µg/mL	–	–	–
Cc1cc[n+]2c(c1)-c1cc(CCc3cc[n+]4c(c3)-c3cc(C)cc[n+]3[Ru-4]435([n+]4cccc6ccc7ccc[n+]3c7c64)[n+]3cccc4ccc6ccc[n+]5c6c43)cc[n+]1[Ru-4]213([n+]2cccc4ccc5ccc[n+]1c5c42)[n+]1cccc2ccc4ccc[n+]3c4c21 [ΛΛ-Rubb2, [{Ru(phen)2}2(μ-bb2)]^4+]	–	–	>128 µg/mL	>128 µg/mL	>128 µg/mL
Cc1cc[n+]2c(c1)-c1cc(CCCCCCCc3cc[n+]4c(c3)-c3cc(C)cc[n+]3[Ru-4]435([n+]4cccc6ccc7ccc[n+]3c7c64)[n+]3cccc4ccc6ccc[n+]5c6c43)cc[n+]1[Ru-4]213([n+]2cccc4ccc5ccc[n+]1c5c42)[n+]1cccc2ccc4ccc[n+]3c4c21.F[P-](F)(F)(F)(F)F.F[P-](F)(F)(F)(F)F.F[P-](F)(F)(F)(F)F.F[P-](F)(F)(F)(F)F [ΛΛ-Rubb7, [{Ru(phen)2}2(μ-bb7)](PF6)4]	–	16 µg/mL	64 µg/mL	64 µg/mL	32 µg/mL
Cc1ccnc(-c2cc(CCCCCCCCCCc3ccnc(-c4cc(C)ccn4)c3)ccn2)c1.F[P-](F)(F)(F)(F)F.F[P-](F)(F)(F)(F)F.F[P-](F)(F)(F)(F)F.F[P-](F)(F)(F)(F)F.[Ru+2].[Ru+2].c1cnc2c(c1)ccc1cccnc12.c1cnc2c(c1)ccc1cccnc12.c1cnc2c(c1)ccc1cccnc12.c1cnc2c(c1)ccc1cccnc12 [ΛΛ-Rubb10, [{Ru(phen)2}2(μ-bb10)](PF6)4]	–	4 µg/mL	8 µg/mL	32 µg/mL	8 µg/mL
Cc1cc[n+]2c(c1)-c1cc(CCCCCCCCCCCCCCc3cc[n+]4c(c3)-c3cc(C)cc[n+]3[Ru-4]435([n+]4cccc6ccc7ccc[n+]3c7c64)[n+]3cccc4ccc6ccc[n+]5c6c43)cc[n+]1[Ru-4]213([n+]2cccc4ccc5ccc[n+]1c5c42)[n+]1cccc2ccc4ccc[n+]3c4c21.[Cl-].[Cl-].[Cl-].[Cl-] [ΛΛ-Rubb14, [{Ru(phen)2}2(μ-bb14)]Cl4]	–	2 µg/mL	1 µg/mL	8 µg/mL	1 µg/mL
Cc1ccnc(-c2cc(CCCCCCCCCCCCCCCCc3ccnc(-c4cc(C)ccn4)c3)ccn2)c1.[Cl-].[Cl-].[Cl-].[Cl-].[Ru+2].[Ru+2].c1cnc2c(c1)ccc1cccnc12.c1cnc2c(c1)ccc1cccnc12.c1cnc2c(c1)ccc1cccnc12.c1cnc2c(c1)ccc1cccnc12 [ΛΛ-Rubb16, [{Ru(phen)2}2(μ-bb16)]Cl4]	–	4 µg/mL	1 µg/mL	8 µg/mL	1 µg/mL
[Ru(Me2phen)3]^2+ [reference compound]	–	128 µg/mL	8 µg/mL	>128 µg/mL	128 µg/mL
[{Ru(phen)2}2(μ-bb5)](PF6)4 [Rubb5]	−3.5	–	–	–	–
[{Ru(phen)2}2(μ-bb5)](PF6)4 [ΔΔ-Rubb5]	–	128 µg/mL	128 µg/mL	>128 µg/mL	128 µg/mL
[{Ru(phen)2}2(μ-bb5)](PF6)4 [ΛΛ-Rubb5]	–	64 µg/mL	128 µg/mL	128 µg/mL	128 µg/mL
[{Ru(phen)2}2(μ-bb12)] [ΛΛ-Rubb12]	–	2 µg/mL	2 µg/mL	16 µg/mL	2 µg/mL
Δ*Δ*-[{Ru*(phen)2}(μ-bb7) {Ru(phen)}(μ-bb7){Ru(phen)}(μ-bb7)-{Ru*(phen)2}]Cl8 [Rubb7tetranuclear]	−1.9	32 µg/mL	8 µg/mL	8 µg/mL	8 µg/mL
Δ*Δ*-[{Ru*(phen)2}(μ-bb7){Ru(phen)}(μ-bb7){Ru*(phen)2}]Cl6 [Rubb7trinuclear]	−1.2	16 µg/mL	4 µg/mL	2 µg/mL	4 µg/mL
ΔΔ-[{Ru(phen)2}2(μ-bb14)](PF6)4 [ΔΔ-Rubb14]	–	4 µg/mL	1 µg/mL	8 µg/mL	1 µg/mL
ΔΔ-[{Ru(phen)2}2(μ-bbN7)] [ΔΔ-RubbN7]	–	>128 µg/mL	>128 µg/mL	>128 µg/mL	>128 µg/mL
ΔΔ-[{Ru(phen)2}2(μ-bbN12)]Cl4 [ΔΔ-RubbN12]	–	128 µg/mL	128 µg/mL	>128 µg/mL	128 µg/mL
ΔΔ-[{Ru(phen)2}2(μ-bbO7)](PF6)4 [ΔΔ-RubbO7]	–	128 µg/mL	128 µg/mL	>128 µg/mL	128 µg/mL
